The values that follow come from BindingDB's records for doi:10.1021/jm00166a002 (Berlex Laboratories, 1990).

The term IC50 denotes the concentration needed to halve the response being measured. Lower therefore signals greater potency in that assay.

The target in the test is Beta-1 adrenergic receptor (Canis familiaris). Briefly: In vitro Beta-1 adrenergic receptor affinity in partially purified membrane fractions from canine cardiac tissue using […] (4.5 nM).

`Cc1nccn1-c1ccc(OCCNCC(O)COc2ccc(N(C)S(C)(=O)=O)cc2)cc1` (configuration not stated) gave a half-maximal inhibitory concentration (IC50) of 18 µM.
To `CN(c1ccc(OCC(O)CNCCOc2ccc(-n3ccnc3)cc2)cc1)S(C)(=O)=O` (configuration not stated) belongs 21 µM.
